Data: US20110213335A1, “HOLLOW MICRONEEDLE ARRAY AND METHOD” (priority 2008, published 2011)
Where a name gives a salt, the structure may show the parent alone.

Assays:
[1] = oral administration; cited from earlier work
[2] = Naloxone infusion by hollow microneedle array with resulting PK profile (serum naloxone by LCMSMS); details: female, pig, other: intradermal infusion by hollow microneedle device

C=CCN1CC[C@]23c4c5ccc(O)c4O[C@H]2C(=O)CC[C@@]3(O)[C@H]1C5 [naloxone, naloxone hydrochloride]
bioavailability when administered orally [1]: about 2% | bioavailability [2]: 107%
